Reference: patent US10414811B2, “Protease-resistant lipidated GLP-1 analogs” (MEDIMMUNE LIMITED, priority 2015, dated 2019)
Like-named read-outs stand apart in the source and are kept apart here. Numbered stars: 1 amine (or outer) side, 2 acyl side, 3 side chain; on linkers, the order of the positions; unused ones are H or OH. Square brackets hold non-standard residues; d marks the D form. Side chains are listed from the residue outwards. Peptide text beside a SMILES is read from it. * marks the point of attachment. C18 diacid = O=C(O)CCCCCCCCCCCCCCCCC(=O)*; γGlu = O=C(O)[C@H](CCC(=O)[*:2])N[*:1]; Palmitoyl = CCCCCCCCCCCCCCCC(=O)*; αMeF = C[C@](N)(Cc1ccccc1)C(=O)O; αMeK = C[C@](N)(CCCCN)C(=O)O; αMeS = C[C@](N)(CO)C(=O)O; AEEA = NCCOCCOCC(=O)O; Aib = CC(C)(N)C(=O)O

Columns and labels:
Format in all cases: cell-based
[1] = molecular target: T1, human GLP-1 receptor (GLP-1R) (Homo sapiens, UniProt P43220); assay: cAMP assay, human GLP-1R cells
T1 construct: expressed in transfected cells
In short: (§1)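 Peptide-stimulated cAMP measured by two-step HTRF after a 30 min room-temperature incubation with receptor-expressing cells (hGLP-1R, hGIPR at 1×10^5 cells/ml; hGCGR at 2×10^5 cells/ml). Duplicate dilutions; EC50 from 4-parameter logistic fit of % Delta F.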

[2] = molecular target: T2, human glucagon receptor (GCGR) (Homo sapiens, UniProt P47871); assay: cAMP assay, human GCGR cells; conditions: cAMP assay
T2 construct: expressed in transfected cells
In short: as §1

[3] = molecular target: T3, human glucose-dependent insulinotropic peptide receptor (GIPR) (Homo sapiens, UniProt P48546); assay: cAMP assay, human GIPR cells; conditions: cAMP assay
T3 construct: expressed in transfected cells
T3 sequence (P48546 22-466): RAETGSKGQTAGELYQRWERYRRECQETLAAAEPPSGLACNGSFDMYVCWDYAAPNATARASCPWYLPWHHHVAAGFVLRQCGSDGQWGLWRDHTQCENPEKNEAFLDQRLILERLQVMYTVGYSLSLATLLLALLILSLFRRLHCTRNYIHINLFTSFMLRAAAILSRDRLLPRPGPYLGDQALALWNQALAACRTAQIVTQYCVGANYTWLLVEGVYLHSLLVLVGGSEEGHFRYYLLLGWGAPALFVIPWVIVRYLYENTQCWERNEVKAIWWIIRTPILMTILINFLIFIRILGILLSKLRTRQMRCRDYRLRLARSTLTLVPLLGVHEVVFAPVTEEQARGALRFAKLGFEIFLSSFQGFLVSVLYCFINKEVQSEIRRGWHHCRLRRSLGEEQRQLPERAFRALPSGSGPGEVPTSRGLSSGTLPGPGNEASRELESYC
In short: as §1

GLP-1R (INS1e assay) = molecular target: T4, GLP-1R (INS1e assay) (Rattus norvegicus, UniProt P32301); assay: INS1e assay, cAMP activity at GLP-1R; conditions: mono-lipidated peptides
T4 construct: endogenous in cells; host or cells: INS-1E cells
T4 sequence (P32301 22-463): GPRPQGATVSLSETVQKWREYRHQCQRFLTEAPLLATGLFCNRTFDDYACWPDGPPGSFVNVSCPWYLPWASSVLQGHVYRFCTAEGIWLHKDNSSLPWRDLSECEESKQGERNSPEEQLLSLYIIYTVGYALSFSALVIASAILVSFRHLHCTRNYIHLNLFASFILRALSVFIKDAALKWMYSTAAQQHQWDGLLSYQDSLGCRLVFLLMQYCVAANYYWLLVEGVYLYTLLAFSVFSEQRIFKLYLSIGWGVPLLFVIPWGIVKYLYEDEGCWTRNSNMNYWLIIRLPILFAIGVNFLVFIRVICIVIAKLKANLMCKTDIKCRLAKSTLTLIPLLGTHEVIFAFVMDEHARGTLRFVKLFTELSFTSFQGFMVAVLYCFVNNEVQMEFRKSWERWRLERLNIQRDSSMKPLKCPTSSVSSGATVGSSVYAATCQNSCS
In short: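 cAMP was quantified by two-step HTRF, using anti-cAMP cryptate donor and cAMP-d2 acceptor, each diluted 1/20 in conjugate and lysis buffer. EC50 values of the synthetic peptides were derived from the cAMP readout.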

[4] = cAMP assay, first determination (n1), read-out: Primary assay EC50 GLP-1R n1
[5] = cAMP assay, second determination (n2), read-out: Primary assay EC50 GLP-1R n2
[6] = mean of n1 and n2, read-out: Mean pM GLP-1R
[7] = first determination (n1), read-out: Primary assay EC50 Gluc-R (n1)
[8] = second determination (n2), read-out: Primary assay EC50 Gluc-R (n2)
[9] = first determination (n1), read-out: Primary assay EC50 GIP-R (n1)
[10] = second determination (n2), read-out: Primary assay EC50 GIP-R (n2)
[11] = mean of n1 and n2, read-out: INS1e assay EC50 Mean pM GLP-1R
[12] = replicate n1, read-out: INS1e assay EC50 GLP-1R n1
[13] = replicate n2, read-out: INS1e assay EC50 GLP-1R n2

T1 sequence (P43220 24-463): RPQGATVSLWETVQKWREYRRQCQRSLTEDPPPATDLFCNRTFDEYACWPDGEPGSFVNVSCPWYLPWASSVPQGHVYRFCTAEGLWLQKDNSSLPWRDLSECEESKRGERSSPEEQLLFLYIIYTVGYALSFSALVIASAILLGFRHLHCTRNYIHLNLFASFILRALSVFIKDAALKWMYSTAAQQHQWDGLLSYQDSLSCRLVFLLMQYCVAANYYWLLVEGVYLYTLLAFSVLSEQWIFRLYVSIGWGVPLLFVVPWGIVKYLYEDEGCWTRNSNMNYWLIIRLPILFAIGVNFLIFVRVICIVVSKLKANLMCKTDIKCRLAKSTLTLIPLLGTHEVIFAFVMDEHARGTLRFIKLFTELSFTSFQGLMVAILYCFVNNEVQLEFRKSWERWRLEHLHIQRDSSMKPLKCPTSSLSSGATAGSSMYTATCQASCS
T2 sequence (P47871 26-477): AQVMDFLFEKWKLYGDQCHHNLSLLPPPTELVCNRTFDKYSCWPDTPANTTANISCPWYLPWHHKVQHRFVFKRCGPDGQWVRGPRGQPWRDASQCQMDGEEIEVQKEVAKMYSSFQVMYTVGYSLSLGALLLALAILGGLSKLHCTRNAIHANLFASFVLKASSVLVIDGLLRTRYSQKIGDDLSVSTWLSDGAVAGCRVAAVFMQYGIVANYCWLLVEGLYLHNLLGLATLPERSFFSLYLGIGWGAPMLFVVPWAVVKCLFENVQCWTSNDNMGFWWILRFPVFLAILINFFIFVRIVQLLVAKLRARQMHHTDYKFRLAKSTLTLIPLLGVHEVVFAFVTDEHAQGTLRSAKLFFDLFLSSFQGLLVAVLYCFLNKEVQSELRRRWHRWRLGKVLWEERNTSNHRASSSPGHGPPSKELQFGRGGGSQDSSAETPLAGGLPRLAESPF

Row | SMILES | EC50 [1, 4] [pM] | EC50 [1, 5] [pM] | EC50 [1, 6] [pM] | EC50 [2, 7] [nM] | EC50 [2, 8] [nM] | EC50 [3, 9] [nM] | EC50 [3, 10] [nM] | EC50 (GLP-1R (INS1e assay); [11]) [pM] | EC50 (GLP-1R (INS1e assay); [12]) [pM] | EC50 (GLP-1R (INS1e assay); [13]) [pM]
1 | CCCCCCCCCCCCCCCC(=O)N[C@@H](CCC(=O)NCCCC[C@H](NC(=O)[C@H](CO)NC(=O)[C@@H](NC(=O)[C@](C)(Cc1ccccc1)NC(=O)[C@H](CO)NC(=O)CNC(=O)[C@H](CCC(=O)O)NC(=O)C(C)(C)NC(=O)[C@@H](N)Cc1c[nH]cn1)[C@@H](C)O)C(=O)N[C@H](C(=O)N[C@@](C)(CO)C(=O)N[C@@H](CO)C(=O)N[C@@](C)(Cc1ccccc1)C(=O)N[C@@H](CC(C)C)C(=O)N[C@@H](CCC(=O)O)C(=O)NCC(=O)N[C@@H](CCC(=O)O)C(=O)N[C@@H](C)C(=O)N[C@@H](C)C(=O)N[C@@](C)(CCCCN)C(=O)N[C@@H](CCC(=O)O)C(=O)N[C@@](C)(Cc1ccccc1)C(=O)N[C@H](C(=O)N[C@@H](C)C(=O)N[C@@](C)(Cc1ccccc1)C(=O)N[C@H](C(=O)N[C@H](C(=O)N[C@@](C)(CCCCN)C(=O)NCC(=O)NCC(N)=O)C(C)C)C(C)C)[C@@H](C)CC)C(C)C)C(=O)O [compound 91] (H-H[Aib]EGS[αMeF]TSK([γGlu-Palmitoyl])V[αMeS]S[αMeF]LEGEAA[αMeK]E[αMeF]IA[αMeF]VV[αMeK]GG-NH2) | 21 | 27 | 24 | ≥ 28 | ≥ 28 | ≥ 28 | ≥ 28 | 2720 | 1930 | 3500
2 | CC[C@H](C)[C@H](NC(=O)[C@](C)(Cc1ccccc1)NC(=O)[C@H](CCCCNC(=O)COCCOCCNC(=O)COCCOCCNC(=O)CC[C@H](NC(=O)CCCCCCCCCCCCCCCCC(=O)O)C(=O)O)NC(=O)[C@](C)(CCCCN)NC(=O)[C@H](C)NC(=O)[C@H](C)NC(=O)[C@H](CCC(=O)O)NC(=O)CNC(=O)[C@H](CCC(=O)O)NC(=O)[C@H](CC(C)C)NC(=O)[C@](C)(Cc1ccccc1)NC(=O)[C@H](CO)NC(=O)[C@](C)(CO)NC(=O)[C@@H](NC(=O)[C@H](CC(=O)O)NC(=O)[C@H](CO)NC(=O)[C@@H](NC(=O)[C@](C)(Cc1ccccc1)NC(=O)[C@H](CO)NC(=O)CNC(=O)[C@H](CCC(=O)O)NC(=O)C(C)(C)NC(=O)[C@@H](N)Cc1c[nH]cn1)[C@@H](C)O)C(C)C)C(=O)N[C@@H](C)C(=O)N[C@@](C)(Cc1ccccc1)C(=O)N[C@H](C(=O)N[C@H](C(=O)N[C@@](C)(CCCCN)C(=O)NCC(=O)NCC(N)=O)C(C)C)C(C)C [compound 108] (H-H[Aib]EGS[αMeF]TSDV[αMeS]S[αMeF]LEGEAA[αMeK]K([AEEA-AEEA-γGlu-C18 diacid])[αMeF]IA[αMeF]VV[αMeK]GG-NH2; N-terminus assumed) | 3.8 | 3.46 | 4 | ≥ 25 | ≥ 25.4 | ≥ 25 | ≥ 25.4 | 248 | 38 | 458

Further lines, results first:

Row | EC50 [1, 4] [pM] | EC50 [1, 5] [pM] | EC50 [1, 6] [pM] | EC50 [2, 7] [nM] | EC50 [2, 8] [nM] | EC50 [3, 9] [nM] | EC50 [3, 10] [nM] | EC50 (GLP-1R (INS1e assay); [11]) [pM] | EC50 (GLP-1R (INS1e assay); [12]) [pM] | EC50 (GLP-1R (INS1e assay); [13]) [pM] | SMILES
3 | 16 |  |  | ≥ 25 | ≥ 24.9 | ≥ 25 | ≥ 24.9 | 822 | 233 | 1410 | CC[C@H](C)[C@H](NC(=O)[C@](C)(Cc1ccccc1)NC(=O)[C@H](CCC(=O)O)NC(=O)[C@](C)(CCCCN)NC(=O)[C@H](C)NC(=O)[C@H](C)NC(=O)[C@H](CCC(=O)O)NC(=O)CNC(=O)[C@H](CCC(=O)O)NC(=O)[C@H](CC(C)C)NC(=O)[C@](C)(Cc1ccccc1)NC(=O)[C@H](CO)NC(=O)[C@](C)(CO)NC(=O)[C@@H](NC(=O)[C@H](CC(=O)O)NC(=O)[C@H](CO)NC(=O)[C@@H](NC(=O)[C@](C)(Cc1ccccc1)NC(=O)[C@H](CO)NC(=O)CNC(=O)[C@H](CCC(=O)O)NC(=O)C(C)(C)NC(=O)[C@@H](N)Cc1c[nH]cn1)[C@@H](C)O)C(C)C)C(=O)N[C@@H](C)C(=O)N[C@@](C)(Cc1ccccc1)C(=O)N[C@H](C(=O)N[C@H](C(=O)N[C@@](C)(CCCCN)C(=O)N[C@@H](CCCCNC(=O)COCCOCCNC(=O)COCCOCCNC(=O)CC[C@H](NC(=O)CCCCCCCCCCCCCCCCC(=O)O)C(=O)O)C(=O)NCC(N)=O)C(C)C)C(C)C [compound 100] (H-H[Aib]EGS[αMeF]TSDV[αMeS]S[αMeF]LEGEAA[αMeK]E[αMeF]IA[αMeF]VV[αMeK]K([AEEA-AEEA-γGlu-C18 diacid])G-NH2)
4 | 58 | 51.2 | 55 | ≥ 25 | ≥ 25.4 | ≥ 25 | ≥ 25.4 | 4060 | 1470 | 6650 | CC[C@H](C)[C@H](NC(=O)[C@](C)(Cc1ccccc1)NC(=O)[C@H](CCC(=O)O)NC(=O)[C@](C)(CCCCN)NC(=O)[C@H](C)NC(=O)[C@H](C)NC(=O)[C@H](CCC(=O)O)NC(=O)CNC(=O)[C@H](CCC(=O)O)NC(=O)[C@H](CC(C)C)NC(=O)[C@](C)(Cc1ccccc1)NC(=O)[C@H](CO)NC(=O)[C@](C)(CO)NC(=O)[C@@H](NC(=O)[C@H](CC(=O)O)NC(=O)[C@H](CO)NC(=O)[C@@H](NC(=O)[C@](C)(Cc1ccccc1)NC(=O)[C@H](CO)NC(=O)CNC(=O)[C@H](CCC(=O)O)NC(=O)C(C)(C)NC(=O)[C@@H](N)Cc1c[nH]cn1)[C@@H](C)O)C(C)C)C(=O)N[C@@H](C)C(=O)N[C@@](C)(Cc1ccccc1)C(=O)N[C@H](C(=O)N[C@H](C(=O)N[C@@H](CCCCNC(=O)COCCOCCNC(=O)COCCOCCNC(=O)CC[C@H](NC(=O)CCCCCCCCCCCCCCCCC(=O)O)C(=O)O)C(=O)NCC(=O)NCC(N)=O)C(C)C)C(C)C [compound 101]
5 | 5.9 |  |  | ≥ 26 | ≥ 25.6 | ≥ 26 | ≥ 25.6 | 331 | 391 | 270 | CC[C@H](C)[C@H](NC(=O)[C@](C)(Cc1ccccc1)NC(=O)[C@H](CCC(=O)O)NC(=O)[C@](C)(CCCCN)NC(=O)[C@H](C)NC(=O)[C@H](C)NC(=O)[C@H](CCC(=O)O)NC(=O)CNC(=O)[C@H](CCC(=O)O)NC(=O)[C@H](CC(C)C)NC(=O)[C@](C)(Cc1ccccc1)NC(=O)[C@H](CO)NC(=O)[C@](C)(CO)NC(=O)[C@@H](NC(=O)[C@H](CC(=O)O)NC(=O)[C@H](CO)NC(=O)[C@@H](NC(=O)[C@](C)(Cc1ccccc1)NC(=O)[C@H](CO)NC(=O)CNC(=O)[C@H](CCC(=O)O)NC(=O)C(C)(C)NC(=O)[C@@H](N)Cc1c[nH]cn1)[C@@H](C)O)C(C)C)C(=O)N[C@@H](C)C(=O)N[C@@H](CCCCNC(=O)COCCOCCNC(=O)COCCOCCNC(=O)CC[C@H](NC(=O)CCCCCCCCCCCCCCCCC(=O)O)C(=O)O)C(=O)N[C@H](C(=O)N[C@H](C(=O)N[C@@](C)(CCCCN)C(=O)NCC(=O)NCC(N)=O)C(C)C)C(C)C [compound 104]
6 | 83 | 70.5 | 77 | ≥ 26 | ≥ 25.6 | ≥ 26 | ≥ 25.6 | 8460 | 5230 | 11700 | CC[C@H](C)[C@H](NC(=O)[C@H](CCCCNC(=O)COCCOCCNC(=O)COCCOCCNC(=O)CC[C@H](NC(=O)CCCCCCCCCCCCCCCCC(=O)O)C(=O)O)NC(=O)[C@H](CCC(=O)O)NC(=O)[C@](C)(CCCCN)NC(=O)[C@H](C)NC(=O)[C@H](C)NC(=O)[C@H](CCC(=O)O)NC(=O)CNC(=O)[C@H](CCC(=O)O)NC(=O)[C@H](CC(C)C)NC(=O)[C@](C)(Cc1ccccc1)NC(=O)[C@H](CO)NC(=O)[C@](C)(CO)NC(=O)[C@@H](NC(=O)[C@H](CC(=O)O)NC(=O)[C@H](CO)NC(=O)[C@@H](NC(=O)[C@](C)(Cc1ccccc1)NC(=O)[C@H](CO)NC(=O)CNC(=O)[C@H](CCC(=O)O)NC(=O)C(C)(C)NC(=O)[C@@H](N)Cc1c[nH]cn1)[C@@H](C)O)C(C)C)C(=O)N[C@@H](C)C(=O)N[C@@](C)(Cc1ccccc1)C(=O)N[C@H](C(=O)N[C@H](C(=O)N[C@@](C)(CCCCN)C(=O)NCC(=O)NCC(N)=O)C(C)C)C(C)C [compound 107]
